These results are taken from US20250041284A1, “TREATMENT OF NEUROLOGICAL DISORDERS” (Praxis Precision Medicines, Inc., priority 2022, published 2025).

The test system of data set [1] is MES-induced seizures in male CD-1 mice. The experiment in a line: Maximal electroshock (MES) induced seizure, latency (Example 3). The format is in vivo, mouse. The protocol:
Food and water were available ad libitum.
Dosing solutions were prepared on each experiment day. […] VPA was prepared in saline (Vehicle 1). All solutions were protected from light. All compounds and vehicles were dosed at 10 ml/kg.
The MES test was carried out over two days with half of the mice from each treatment group being tested on each day. Mice were brought to the test room at least one hour before the start of the experiment. […] Mice were randomly assigned into one of the six treatment groups.
Animals were p.o. (oral) administered Compound 1 or 35% HPBCD (Vehicle 2) 30 minutes prior to the MES test or i.p. administered VPA or saline (Vehicle 1) 30 minutes prior to the MES test.
A Grass S88x (Grass Technologies of Astro-Med, Inc., West Warwick, RI) Stimulus Isolation Unit (A385, WPI Inc., USA) was set to deliver a 50 mA square-wave stimulus, with a 0.8 second duration, a pulse width of 10 msec, and a frequency of 50 Hz. A pair of custom stainless steel electrodes were soaked in 0.2% Agar, and then the subject received bilateral transauricular stimulation through ear-clip electrodes. During the stimulation, mice were manually restrained. They were then released into the observation cage for convulsion observation for 60 seconds immediately after stimulation. Each mouse was observed continuously by individuals blinded to treatment conditions and results were recorded.
Anti-seizure assessment endpoints were: (1) latency of hindlimb tonic flexion; (2) latency of hindlimb tonic extension; (3) total #hindlimb tonic flexions; (4) total #hindlimb tonic extensions; (5) latency to death; and (6) mortality rate.
Following the experiment, mice were anesthetized with CO2 and terminal plasma and brain tissue samples were collected. […] The supernatant plasma was pipetted into Eppendorf tubes.
An aliquot of 20 μL unknown sample, calibration standard, quality control, dilute quality control, single blank and double blank sample was added to a 1.5 mL tube. […]
From these fitted curves, ED50 and EC50 values were calculated.

Data set [2] deals with psychomotor seizures induced by 6-Hz electrical stimulation in wild-type CD-1 mice. The experiment in a line: 6-Hz psychomotor seizure model. Format: in vivo, mouse. Set-up: EC50 value, protection from psychomotor seizures: unit not given here. From the text:
This study evaluated the efficacy of Compound 1 in attenuating psychomotor seizures induced by 6-Hz electrical stimulation at two different stimulation intensities (32 and 44 mA) in wild-type CD-1 mice. Psychomotor seizures are defined as the expression of at least one of the following behaviors: stun/immobility, forelimb clonus, straub tail or lateral head movement within 30 seconds of the stimulus. Protection is defined as a complete absence of the above behaviors within 30 seconds of the stimulus. Doses of Compound 1 used were 1 mg/kg, 3 mg/kg and 6 mg/kg administered orally. Valproate (600 mg/kg, administered intraperitoneally) was used as a positive control.
Male CD-1 mice (Charles River Laboratories; St. Constant, Quebec, CAN) were used for the study. Body weights at the time the experiment was carried out were 30-40 grams. The mice were group-housed in polycarbonate cages according to standard operating procedures. Animals were maintained on a 12-hour light/12 hour dark cycle, with all experimental activities occurring during the light phase. Food and water were available ad libitum. Mice acclimated to the test facility for at least 72 hours prior to testing.
Treatment was conducted using Compound 1 and 35% 2-hydroxypropyl-β-cyclodextrin (35% HPBCD, used as a negative control). Compound 1 stock solution was prepared fresh each experiment day in 35% HPBCD. […] Valproate was prepared fresh each experiment day in a vehicle of saline and dosed at 10 mL/kg.
Mice were administered vehicle (35% HPBCD), a single dose of Compound 1 (1 mg/kg, 3 mg/kg or 6 mg/kg) or valproate (600 mg/kg). Vehicle and Compound 1 were administered via oral gavage 30 minutes prior to […]. Valproate was administered as an intraperitoneal injection 60 minutes prior to the electrical stimulus.
Immediately prior to conducting the 6-Hz seizure test, a brief neurological assessment was performed. Each animal was visually assessed and received a score from 0 to 3 according to the following scoring system::neurological score of 0 corresponds to a normal status; neurological score of 1 corresponds to a modest decrease in spontaneous activity; neurological score of 2 corresponds to a marked decrease in spontaneous activity; and neurological score of 3 corresponds to loss of righting reflex.
Corneal electrodes moistened with saline (ECT unit 57800; Ugo Basile) were used to deliver the electrical stimulus (6-Hz, 0.2 millisecond pulse width, 3 seconds duration). The current delivered was either 32 mA or 44 mA. Immediately after the electrical stimulus, each mouse was monitored continuously for 30 seconds by an observer blinded to the treatment group. […] Mice were scored for the presence or absence of each seizure behavior, with a maximum total score of 4. […] At the end of the 6-Hz seizure test, plasma and brain samples were collected.
Mice were anesthetized with isoflurane, whole blood was collected via cardiac puncture and brains were harvested. Whole blood was collected in potassium EDTA tubes and centrifuged at ˜3300 g for 5 minutes at 4° C. to isolate plasma. Plasma and brain samples were stored at −80° C. and analyzed to determine levels of Compound 1.
All statistical analyses were conducted using GraphPad Prism 9.3. Seizure scores were compared using Kruskal-Wallis test, followed by Dunn's post hoc and p<0.05 was considered statistically significant.

Structures are written as SMILES. Entries after “also recorded” stand apart in the source; their conditions may differ.

Turning to `CCOC(F)(F)c1nnc2ccc(-c3cnc(OCC(F)(F)F)c(F)c3)cn12` [Compound 1], the “latency to seizures following bilateral transauricular stimulation” value in data set [1] (1 mg/kg p.o.) is listed as “significantly increased latency to seizures”. Besides, the “block of evoked seizures (MES)” value in data set [1] (10 mg/kg) is reported as “completely blocked evoked seizures”. Moreover, the ED50 (commonly the dose at which the effect has come halfway, by size or by number of responders) in data set [1] (Mus musculus, po, 30 min before MES, latency to seizures) is 0.67 mg/kg; in data set [2] (Mus musculus, dose-response curve, read-out: ED50 value, protection from psychomotor seizures) it was 1.9 mg/kg. Moreover, the seizure score result in data set [2] (6 mg/kg orally, 32 and 44 mA) is listed as “significantly reduced the seizure score; also recorded: reduced seizure scores”. For the same compound, the “neurological scores before 6-Hz test” value in data set [2] (1, 3, 6 mg/kg orally) is given as “all neurological scores were zero; also recorded: Neurological scores for all doses of Compound 1 tested were normal”. The “Plasma EC50” value in data set [2] (32 mA, 95% confidence interval in parentheses) was 385 (383-386) ng/mL; in data set [2] (44 mA), more than 441 ng/mL. For the same compound, the “EC50 value, protection from psychomotor seizures” value in data set [2] (plasma concentration-response curve) is 147.
